Values of other authors, collected in PMC4448982, “LP-925219 maximizes urinary glucose excretion in mice by inhibiting both renal SGLT1 and SGLT2” (Pharmacology Research & Perspectives, 2015).
Read-outs that look alike come from different tables or passages of the source.

Tests used:
[1] = design: method as in Powell et al. [2014]; details: mouse; ref Powell et al. [2014]; cited from earlier work
[2] = design: method as in Powell et al. [2014]; details: human; ref Powell et al. [2014]; cited from earlier work
[3] = system: SGLT2; design: method as in Rieg et al. [2014]; details: ref Rieg et al. [2014], cited from earlier work

Compound | plasma protein binding [1] [%] | plasma protein binding [2] [%] | reduction of glucose reabsorption ([3]; SGLT1 KO mice) [%] | reduction of glucose reabsorption ([3]; WT mice) [%]
CCOc1ccc(Cc2cc([C@@H]3O[C@H](SC)[C@@H](O)[C@H](O)[C@H]3O)ccc2Cl)cc1 [sotagliflozin] | > 90 | > 90 | – | –
OC[C@H]1O[C@@H](c2ccc(Cl)c(Cc3ccc(O[C@H]4CCOC4)cc3)c2)[C@H](O)[C@@H](O)[C@@H]1O [empagliflozin] | – | – | 100 | 56
